From ChEMBL document CHEMBL3351890, “Azapropellanes with anti-influenza a virus activity” (ACS Med Chem Lett, 2014) come the findings set out here.

Each structure is given as a SMILES string.

Series [1] relates to Influenza A virus. Nature of the series: Antiviral activity against Influenza A virus A/PR/8/34 (H1N1) infected in MDCK cells assessed as cell viability by MTS assay. It counts as functional, organism-based. Particulars: A/Puerto Rico/8/1934(H1N1).
Series [2] is described as follows: Cytotoxicity against MDCK cells assessed as cell viability after 72 hrs by MTS assay. It counts as cell-based, Canis lupus familiaris. The settings on record: dog.
The nature of series [3]: Antiviral activity against Influenza A virus A/HK/7/87 (H3N2) infected in MDCK cells assessed as inhibition of virus-induced cytopathic effect. It counts as functional, cell-based, Influenza A virus (A/Hong Kong/7/1987(H3N2)).
A short description of series [4]: Antiviral activity against Influenza A virus A/HK/7/87 (H3N2) infected in MDCK cells assessed as cell viability by MTS assay. It counts as functional, cell-based, Influenza A virus (A/Hong Kong/7/1987(H3N2)).
A short description of series [5]: Cytotoxicity against MDCK cells assessed as cell morphology by microscopical examination. Particulars: dog. It counts as cell-based, Canis lupus familiaris.
The subject of series [6] is Influenza A virus. Put plainly: Antiviral activity against Influenza A virus A/PR/8/34 (H1N1) infected in MDCK cells assessed as inhibition of virus-induced cytopathic effect. In kind it is functional, organism-based. The settings on record: A/Puerto Rico/8/1934(H1N1).
Series [7] concerns the target Matrix protein 2 (Influenza A virus) (UniProt P06821). Put plainly: Inhibition of influenza A virus wild type M2 proton channel expressed in Xenopus oocytes at 100 uM for 2 mins by two-electrode voltage clamp analysis. In kind it is cell-based.

Sequence of Matrix protein 2 (Influenza A virus) (P06821 whole entry): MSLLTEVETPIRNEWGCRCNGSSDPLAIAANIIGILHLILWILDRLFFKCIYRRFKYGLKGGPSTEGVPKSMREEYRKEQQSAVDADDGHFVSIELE

On to `CC1=C(C)C[C@]23CNC[C@@]2(C1)CC(C)=C(C)C3`, for which the 50% effective concentration (EC50) with Influenza A virus [1] is 5.6 µM; in series [3], greater than 100 µM; in series [4], greater than 100 µM; with Influenza A virus [6] it was 7 µM. The CC50 at 72 h in series [2] is greater than 100 µM. In addition, the MCC in series [5] is greater than 100 µM.

On to `C=C1CC23CCCC2(CNC3)C1` (stereo not given), for which the EC50 (in the series with Influenza A virus [1]; in series [3]; in series [4]; with Influenza A virus [6]) was greater than 100 µM in each case. Further, in series [2], the 50% cytotoxic concentration (CC50) at 72 h was greater than 100 µM. Also, the inhibition in series [7] amounted to 29.9%. For the same molecule, the MCC in series [5] is greater than 100 µM.

With `C1=CC2C3C4C5C=CC4C24CNCC54C13`, the CC50 at 72 h in series [2] was greater than 100 µM. The EC50 in series [3] is 14 µM; with Influenza A virus [6] it was 16 µM. Besides, the MCC in series [5] is greater than 100 µM.

In the case of `C1=CC[C@]23CC=CC[C@@]2(C1)CNC3`, the EC50 was 30 µM with Influenza A virus [1], greater than 100 µM in series [3], greater than 100 µM in series [4] and 38 µM with Influenza A virus [6]. In series [2], the CC50 at 72 h was greater than 100 µM. In addition, the MCC in series [5] is greater than 100 µM.

On to `N=C(N)N1CC23CCCC2(CCC3)C1` (stereo not given), for which the EC50 (in the series with Influenza A virus [1]; in series [3]; in series [4]; in the series with Influenza A virus [6]) was greater than 100 µM in each case. In series [2], the CC50 at 72 h was 100 µM. The MCC in series [5] is 54 µM.

In the case of `C1=CC[C@]23CCC[C@@]2(C1)CNC3`, the EC50 in the series on Influenza A virus [1] was 56 µM; in series [3], greater than 100 µM; in series [4], greater than 100 µM; with Influenza A virus [6], 70 µM. In addition, the CC50 at 72 h in series [2] was greater than 100 µM. In addition, the MCC in series [5] is greater than 100 µM.

`C=C1CC23CC=CCC2(CNC3)C1` (stereo not given): the EC50 in the series with Influenza A virus [1] was 43 µM; in series [3] it was greater than 100 µM; in series [4], greater than 100 µM; in the series on Influenza A virus [6] it was 45 µM. Moreover, the CC50 at 72 h in series [2] was greater than 100 µM. In series [7], the inhibition stood at 14.9%. Further, the MCC in series [5] was greater than 100 µM.

On to `C=C1CC23CC(=C)CC2(C1)CN(C(=N)N)C3` (stereo not given), for which the EC50 (in the series on Influenza A virus [1]; in series [3]; in series [4]; with Influenza A virus [6]) was greater than 100 µM throughout. Also, the half-maximal cytotoxic concentration (CC50) at 72 h in series [2] was found to be 20 µM. Moreover, the MCC in series [5] turned out to be 16 µM.

For the molecule `C1=CC[C@]23CCCC[C@@]2(C1)CNC3`, the EC50 was 14 µM with Influenza A virus [1], greater than 100 µM in series [3], greater than 100 µM in series [4] and 30 µM with Influenza A virus [6]. Also, the CC50 at 72 h in series [2] is greater than 100 µM. The molecule further had an inhibition in series [7] of 19.1%. The MCC in series [5] was greater than 100 µM.

Turning to `C1CC23CCCC2(C1)CNC3` (stereo not given), the EC50 (with Influenza A virus [1]; in series [3]; in series [4]; in the series on Influenza A virus [6]) was greater than 100 µM each time. The cytotoxic concentration (CC50) at 72 h in series [2] was greater than 100 µM. Further, the inhibition in series [7] stood at 47.1%. In addition, in series [5], the MCC is greater than 100 µM.

Regarding `CC1CC23CC(C)CC2(C1)CN(C(=N)N)C3` (stereo not given), the EC50 in the series on Influenza A virus [1] is 1.6 µM; in series [3], greater than 100 µM; in series [4] it was greater than 100 µM; in the series on Influenza A virus [6], 2 µM. In series [2], the CC50 at 72 h is greater than 20 µM. Besides, in series [7], the inhibition stood at 8.8%. The MCC in series [5] was greater than 100 µM.

With `C=C1CC23CNCC2(C1)CC(=C)C3` (stereo not given), the EC50 with Influenza A virus [1] is less than 0.8 µM; in series [3] it was greater than 100 µM; in series [4], greater than 100 µM; in the series on Influenza A virus [6], less than 0.8 µM. Further, in series [2], the CC50 at 72 h was greater than 100 µM. Further, the inhibition in series [7] was 29.3%. In addition, the MCC in series [5] was greater than 100 µM.

Regarding `CC1CC23CNCC2(C1)CC(C)C3` (stereo not given), the EC50 is 20 µM in the series on Influenza A virus [1], greater than 100 µM in series [3], greater than 100 µM in series [4] and 24 µM with Influenza A virus [6]. Moreover, the CC50 at 72 h in series [2] was greater than 100 µM. This molecule returned an inhibition in series [7] of 58.7%. The MCC in series [5] was greater than 100 µM.

For `N=C(N)N1C[C@@]23CC=CC[C@@]2(CCC3)C1`, the EC50 (with Influenza A virus [1]; in series [3]; in series [4]; in the series on Influenza A virus [6]) was greater than 100 µM throughout. For the same molecule, in series [2], the CC50 at 72 h was greater than 100 µM. Moreover, in series [5], the MCC was greater than 100 µM.

Regarding `C1CC[C@]23CCCC[C@@]2(C1)CNC3`, the EC50 is 13 µM in the series with Influenza A virus [1], greater than 100 µM in series [3], greater than 100 µM in series [4] and 5.9 µM in the series on Influenza A virus [6]. In addition, the CC50 at 72 h in series [2] is greater than 100 µM. Also, the MCC in series [5] was greater than 100 µM.
